Assay results: patent US20250059183A1, “PYRIDINE[4,3-D]PYRIMIDINE COMPOUND AS TLR7/8 AGONIST” (SHANGHAI VISONPHARMA CO., LTD., priority 2021, published 2025)

biological target: T1, human TLR7 (Homo sapiens, UniProt Q9NYK1); test: HEK-Blue hTLR7 SEAP reporter gene agonist assay; assay type: cell-based; settings: HEK-Blue hTLR7 cells, 16 to 22 hours incubation
T1 construct: host or cells: HEK-Blue hTLR7 (HEK293-derived reporter cells)
T1 sequence (Q9NYK1 27-1049): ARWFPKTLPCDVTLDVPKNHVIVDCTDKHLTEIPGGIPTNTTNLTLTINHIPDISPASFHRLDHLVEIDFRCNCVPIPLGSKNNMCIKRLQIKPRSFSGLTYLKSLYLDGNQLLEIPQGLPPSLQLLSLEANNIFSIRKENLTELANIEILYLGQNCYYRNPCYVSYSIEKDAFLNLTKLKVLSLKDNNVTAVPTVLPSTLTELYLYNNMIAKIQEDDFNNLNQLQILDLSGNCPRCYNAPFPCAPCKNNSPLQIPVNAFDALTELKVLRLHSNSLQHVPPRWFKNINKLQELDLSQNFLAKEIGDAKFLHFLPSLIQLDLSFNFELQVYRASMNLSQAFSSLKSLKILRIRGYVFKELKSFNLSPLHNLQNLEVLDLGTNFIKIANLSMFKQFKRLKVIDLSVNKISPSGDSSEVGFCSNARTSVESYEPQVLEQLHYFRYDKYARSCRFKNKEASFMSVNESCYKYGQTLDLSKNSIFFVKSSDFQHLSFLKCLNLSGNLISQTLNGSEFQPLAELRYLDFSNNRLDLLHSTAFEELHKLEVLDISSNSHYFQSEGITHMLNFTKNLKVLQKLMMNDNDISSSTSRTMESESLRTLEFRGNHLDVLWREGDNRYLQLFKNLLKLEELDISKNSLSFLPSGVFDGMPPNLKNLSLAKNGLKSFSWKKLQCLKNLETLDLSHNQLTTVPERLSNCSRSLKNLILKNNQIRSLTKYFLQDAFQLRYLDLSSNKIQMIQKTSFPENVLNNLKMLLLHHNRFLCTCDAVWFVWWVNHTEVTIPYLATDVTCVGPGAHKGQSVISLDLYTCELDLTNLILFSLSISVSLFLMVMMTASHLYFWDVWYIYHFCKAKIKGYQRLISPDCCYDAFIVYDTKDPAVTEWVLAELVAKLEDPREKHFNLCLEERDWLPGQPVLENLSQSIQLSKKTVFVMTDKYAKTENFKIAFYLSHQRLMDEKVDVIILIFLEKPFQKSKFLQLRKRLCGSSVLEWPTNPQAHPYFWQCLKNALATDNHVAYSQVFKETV
Method: (§1) HEK-Blue™ cells that stably express human TLR7 or TLR8 are used to evaluate the agonistic activity of the compounds on TLR7 or TLR8, which is determined by the induction of the expression of SEAP reporter gene under the control of minimum IFN-β promoter fusion to 5×NF-κB and AP-1 binding sites. The assay is conducted as below:
(§2) HEK-Blue™ hTLR7 (Invivogen, 80,000 cells per well) or HEK-Blue™ hTLR8 (Invivogen, 60,000 cells per well) were added to the 96-well cell culture plate, followed by adding of the test compound. The final concentration of the test compound in the medium ranged from […], and was incubated for 16 to 22 hours. According to the manufacturer's instructions, the HEK-Blue assay reagent Quanti-blue (Invivogen) was used to measure SEAP levels in cell media. Optical density at 650 nm (OD650) was measured by Neo2 multifunction plate reader (Bio-tek). The half effective concentration (EC50) was calculated using GraphPad Prism.

EC50 [nM] | SMILES
86 | CCCC(CCC)Nc1nc(N)nc2ccn(Cc3ccc(C(=O)N4CCN(C)CC4)cc3)c(=O)c12 [Compound I-114, 2-amino-4-(heptan-4-ylamino)-6-(4-(4-methylpiperazine-1-carbonyl)benzyl)pyrido[4,3-d]pyrimidin-5(6H)-one]
70 | CCCC(CCC)Nc1nc(N)nc2ccn(Cc3ccc(C(=O)N4CCN(CCO)CC4)cc3OC)c(=O)c12 [Compound I-136, 2-amino-4-(heptan-4-ylamino)-6-(4-(4-(2-hydroxyethyl)piperazine-1-carbonyl)-2-methoxybenzyl)pyrido[4,3-d]pyrimidin-5(6H)-one]
41 | CCCCNc1nc(N)nc2ccn(Cc3ccc(C(=O)N4CCN(C)CC4)cc3OC)c(=O)c12 [Compound I-73, 2-amino-4-(butylamino)-6-(2-methoxy-4-(4-methylpiperazine-1-carbonyl)benzyl)pyrido[4,3-d]pyrimidin-5(6H1)-one]
65 | CCC[C@@H](CC)Nc1nc(N)nc2ccn(Cc3ccc(C(=O)N4CCNCC4)cc3)c(=O)c12 [Compound I-137, (R)-2-amino-4-(hexan-3-ylamino)-6-(4-(piperazine-1-carbonyl)benzyl)pyrido[4,3-d]pyrimidin-5(6H)-one]
70 | CCCC(CCC)Nc1nc(N)nc2ccn(Cc3ccc(C(=O)N4CCN(C)CC4)cc3OC)c(=O)c12 [Compound I-133, 2-amino-4-(heptan-4-ylamino)-6-(2-methoxy-4-(4-methylpiperazine-1-carbonyl)benzyl)pyrido[4,3-d]pyrimidin-5(6H)-one]
82 | CCCCNc1nc(N)nc2ccn(Cc3ccc(C(=O)N4CCN(C)CC4)cc3)c(=O)c12 [Compound I-63, 2-amino-4-(butylamino)-6-(4-(4-methylpiperazine-1-carbonyl)benzyl)pyrido[4,3-d]pyrimidin-5(6H)-one]

biological target: T2, human TLR8 (Homo sapiens, UniProt Q9NR97); test: HEK-Blue hTLR8 SEAP reporter gene agonist assay; assay type: cell-based; settings: HEK-Blue hTLR8 cells, 16 to 22 hours incubation
T2 construct: host or cells: HEK-Blue hTLR8 (HEK293-derived reporter cells)
T2 sequence (Q9NR97 27-1041): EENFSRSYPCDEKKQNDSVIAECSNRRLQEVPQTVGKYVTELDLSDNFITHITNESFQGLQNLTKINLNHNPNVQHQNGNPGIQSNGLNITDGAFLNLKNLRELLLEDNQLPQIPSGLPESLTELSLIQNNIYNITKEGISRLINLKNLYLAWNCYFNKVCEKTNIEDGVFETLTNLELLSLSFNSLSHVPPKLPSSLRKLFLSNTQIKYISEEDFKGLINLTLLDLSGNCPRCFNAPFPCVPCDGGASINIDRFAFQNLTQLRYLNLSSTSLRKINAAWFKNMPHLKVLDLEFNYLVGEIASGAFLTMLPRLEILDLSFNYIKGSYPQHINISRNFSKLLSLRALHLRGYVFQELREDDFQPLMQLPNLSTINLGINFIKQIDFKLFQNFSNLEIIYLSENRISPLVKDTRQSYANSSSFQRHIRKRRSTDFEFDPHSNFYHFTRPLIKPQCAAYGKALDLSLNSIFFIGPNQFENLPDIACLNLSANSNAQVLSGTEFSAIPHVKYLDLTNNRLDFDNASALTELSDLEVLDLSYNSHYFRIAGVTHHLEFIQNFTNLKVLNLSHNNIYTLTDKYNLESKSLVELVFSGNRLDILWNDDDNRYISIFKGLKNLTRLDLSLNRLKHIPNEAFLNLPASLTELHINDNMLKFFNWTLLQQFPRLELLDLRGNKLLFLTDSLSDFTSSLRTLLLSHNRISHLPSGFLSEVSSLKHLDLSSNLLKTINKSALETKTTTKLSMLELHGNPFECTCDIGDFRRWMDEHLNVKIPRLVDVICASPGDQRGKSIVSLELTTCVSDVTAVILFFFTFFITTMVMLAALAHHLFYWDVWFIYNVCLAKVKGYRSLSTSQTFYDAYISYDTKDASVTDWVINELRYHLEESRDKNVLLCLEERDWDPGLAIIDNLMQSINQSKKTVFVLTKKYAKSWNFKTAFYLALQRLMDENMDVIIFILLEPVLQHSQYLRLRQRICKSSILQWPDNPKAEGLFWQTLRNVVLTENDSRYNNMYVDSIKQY
Method: as §1, §2

SMILES | EC50 [nM]
CCCCNc1nc(N)nc2ccn(Cc3ccc(CNCCO)cc3)c(=O)c12 [Compound I-34, 2-amino-4-(butylamino)-6-(4-(((2-hydroxyethyl)amino)methyl)benzyl)pyrido[4,3-d]pyrimidin-5(6H)-one] | 45
CCCCNc1nc(N)nc2ccn(Cc3cnc(CN4CCCC4)cn3)c(=O)c12 [Compound I-129, 2-amino-4-(butylamino)-6-((5-(pyrrolidin-1-ylmethyl)pyrazin-2-yl)methyl)pyrido[4,3-d]pyrimidin-5(6H)-one] | 77
CCCCCCCCCCCCCCCC(=O)OC[C@H](CCC)Nc1nc(N)nc2ccn(Cc3ccc(CN4CCN(C)CC4)cc3OC)c(=O)c12 [Compound I-222] | 9
CCC[C@@H](CO)Nc1nc(N)nc2ccn(Cc3ccc(CN(C)CCN)cc3OC)c(=O)c12 [Compound I-208] | 70
CCCCNc1nc(N)nc2ccn(Cc3ccc(CN(CCO)CCO)cc3)c(=O)c12 [Compound I-50, 2-amino-6-(4-((bis(2-hydroxyethyl)amino)methyl)benzyl)-4-(butylamino)pyrido[4,3-d]pyrimidin-5(6H)-one] | 51
COCCNc1nc(N)nc2ccn(Cc3ccc(CN4CCCC4)cc3)c(=O)c12 [Compound I-21, 2-amino-4-((2-methoxyethyl)amino)-6-(4-(pyrrolidin-1-ylmethyl)benzyl)pyrido[4,3-d]pyrimidin-5(6H)-one] | 51
CCCCNc1nc(N)nc2ccn(Cc3ccc(CN4CCCC4)cn3)c(=O)c12 [Compound I-128, 2-amino-4-(butylamino)-6-((5-(pyrrolidin-1-ylmethyl)pyridin-2-yl)methyl)pyrido[4,3-d]pyrimidin-5(6H)-one] | 66
CCC[C@@H](CO)Nc1nc(N)nc2ccn(Cc3ccc(CN4CCNCC4)cc3OC)c(=O)c12 [Compound I-191, (S)-2-amino-4-((1-hydroxypentan-2-yl)amino)-6-(2-methoxy-4-(piperazin-1-ylmethyl)benzyl)pyrido[4,3-d]pyrimidin-5(6H)-one] | 18
CCC[C@@H](C)Nc1nc(N)nc2ccn(Cc3ccc(CN4CC5(COC5)C4)nc3OC)c(=O)c12 [Compound I-188, (R)-6-((6-((2-oxa-6-azaspiro[3.3]heptan-6-yl)methyl)-2-methoxypyridin-3-yl)methyl)-2-amino-4-(pentan-2-ylamino)pyrido[4,3-d]pyrimidin-5(6H)-one] | 29
CCCCNc1nc(N)nc2ccn(Cc3ccc(CN4CCCC4)c(F)c3)c(=O)c12 [Compound I-27, 2-amino-4-(butylamino)-6-(3-fluoro-4-(pyrrolidin-1-ylmethyl)benzyl)pyrido[4,3-d]pyrimidin-5(6H)-one] | 95

Now from value to compound:

EC50 [nM] | SMILES
55 | CCCCNc1nc(N)nc2ccn(Cc3ccc(C(=O)N4CC5CC(C4)N5)cc3)c(=O)c12 [Compound I-19, 6-(4-(3,6-diazabicyclo[3.1.1]heptane-3-carbonyl)benzyl)-2-amino-4-(butylamino)pyri do[4,3-d]pyrimidin-5(6H)-one]
97 | CCCC(C)Nc1nc(N)nc2ccn(Cc3ccc(CN4CCCC4)cc3)c(=O)c12 (stereo not shown) [Compound I-12, 2-amino-4-(pentan-2-ylamino)-6-(4-(pyrrolidin-1-ylmethyl)benzyl)pyrido[4,3-d]pyrimidin-5(6H)-one]
30 | CCC[C@@H](C)Nc1nc(N)nc2ccn(Cc3ccc(CN(CCC)CCO)cc3)c(=O)c12 [Compound I-140, (R)-2-amino-6-(4-(((2-hydroxyethyl)(propyl)amino)methyl)benzyl)-4-(pentan-2-ylamino)pyrido[4,3-d]pyrimidin-5(6H)-one]
73 | CCCCOC(=O)OC[C@H](CCC)Nc1nc(N)nc2ccn(Cc3ccc(CN4CCN(C)CC4)cc3OC)c(=O)c12 [Compound I-226]
30 | CCCCCCCCCC(=O)OC[C@H](CCC)Nc1nc(N)nc2ccn(Cc3ccc(CN4CCN(C)CC4)cc3OC)c(=O)c12 [Compound I-221]
44 | CCC[C@@H](CO)Nc1nc(N)nc2ccn(Cc3ccc(CN4CCN(CCN)CC4)cc3OC)c(=O)c12 [Compound I-207, (S)-2-amino-6-(4-((4-(2-aminoethyl)piperazin-1-yl)methyl)-2-methoxybenzyl)-4-((1-hydroxypentan-2-yl)amino)pyrido[4,3-d]pyrimidin-5(6H)-one]
